Each compound was assayed on KM12 cells (assay: Cell viability assay (CellTiter-Glo) in KM12 cells). Conditions: Homo sapiens, 72 h; Table 3; KM12 cell viability, CellTiter-Glo, 3 days; read-out: IC50.
Type: cell-based
`O=C1CCC(N2C(=O)c3ccc(NCCOCCOCCOCCC(=O)N4CCN(c5ccc(C(=O)Nc6n[nH]c7ccc(Cc8cc(F)cc(F)c8)cc67)c(NC6CCOCC6)c5)CC4)cc3C2=O)C(=O)N1` (stereo not shown) [TR-146, N-(5-(3,5-Difluorobenzyl)-1H-indazol-3-yl)-4-(4-(3-(2-(2-(2-((2-(2,6-dioxopiperidin-3-yl)-1,3-dioxoisoindolin-5-yl)amino)ethoxy)ethoxy)ethoxy)propanoyl)piperazin-1-yl)-2-((tetrahydro-2H-pyran-4-yl)amino)benzamide] showed an IC50 of 4.2 nM. `O=C(CN1CCN(c2ccc(C(=O)Nc3n[nH]c4ccc(Cc5cc(F)cc(F)c5)cc34)c(NC3CCOCC3)c2)CC1)NCCCCCCNc1cccc2c1C(=O)N(C1CCC(=O)NC1=O)C2=O` (stereo not shown) [TR-147, N-(5-(3,5-Difluorobenzyl)-1H-indazol-3-yl)-4-(4-(2-((6-((2-(2,6-dioxopiperidin-3-yl)-1,3-dioxoisoindolin-4-yl)amino)hexyl)amino)-2-oxoethyl)piperazin-1-yl)-2-((tetrahydro-2H-pyran-4-yl)amino)benzamide] gave an IC50 of 6.4 nM. `O=C(CN1CCN(c2ccc(C(=O)Nc3n[nH]c4ccc(Cc5cc(F)cc(F)c5)cc34)c(NC3CCOCC3)c2)CC1)NCCCCCCCCNc1cccc2c1C(=O)N(C1CCC(=O)NC1=O)C2=O` (stereo not shown) [TR-148, N-(5-(3,5-Difluorobenzyl)-1H-indazol-3-yl)-4-(4-(2-((8-((2-(2,6-dioxopiperidin-3-yl)-1,3-dioxoisoindolin-4-yl)amino)octyl)amino)-2-oxoethyl)piperazin-1-yl)-2-((tetrahydro-2H-pyran-4-yl)amino)benzamide] was tested, and the IC50 was 23.2 nM. In the case of `O=C(CN1CCN(c2ccc(C(=O)Nc3n[nH]c4ccc(Cc5cc(F)cc(F)c5)cc34)c(NC3CCOCC3)c2)CC1)NCCCCCNc1cccc2c1C(=O)N(C1CCC(=O)NC1=O)C2=O` (stereo not shown) [TR-149, N-(5-(3,5-Difluorobenzyl)-1H-indazol-3-yl)-4-(4-(2-((5-((2-(2,6-dioxopiperidin-3-yl)-1,3-dioxoisoindolin-4-yl)amino)pentyl)amino)-2-oxoethyl)piperazin-1-yl)-2-((tetrahydro-2H-pyran-4-yl)amino)benzamide], the IC50 is reported as 4.6 nM. Work on `O=C(CN1CCN(c2ccc(C(=O)Nc3n[nH]c4ccc(Cc5cc(F)cc(F)c5)cc34)c(NC3CCOCC3)c2)CC1)NCCOCCOCCOCCOCCNc1cccc2c1C(=O)N(C1CCC(=O)NC1=O)C2=O` (stereo not shown) [TR-150, N-(5-(3,5-Difluorobenzyl)-1H-indazol-3-yl)-4-(4-(17-((2-(2,6-dioxopiperidin-3-yl)-1,3-dioxoisoindolin-4-yl)amino)-2-oxo-6,9,12,15-tetraoxa-3-azaheptadecyl)piperazin-1-yl)-2-((tetrahydro-2H-pyran-4-yl)amino)benzamide] yielded an IC50 of 16.6 nM. In the case of `O=C(CN1CCN(c2ccc(C(=O)Nc3n[nH]c4ccc(Cc5cc(F)cc(F)c5)cc34)c(NC3CCOCC3)c2)CC1)NCCOCCNc1cccc2c1C(=O)N(C1CCC(=O)NC1=O)C2=O` (stereo not shown) [TR-151, N-(5-(3,5-Difluorobenzyl)-1H-indazol-3-yl)-4-(4-(2-((2-(2-((2-(2,6-dioxopiperidin-3-yl)-1,3-dioxoisoindolin-4-yl)amino)ethoxy)ethyl)amino)-2-oxoethyl)piperazin-1-yl)-2-((tetrahydro-2H-pyran-4-yl)amino)benzamide], the IC50 is reported as 3.1 nM. Work on `O=C(CN1CCN(c2ccc(C(=O)Nc3n[nH]c4ccc(Cc5cc(F)cc(F)c5)cc34)c(NC3CCOCC3)c2)CC1)NCCCNc1cccc2c1C(=O)N(C1CCC(=O)NC1=O)C2=O` (stereo not shown) [TR-152, N-(5-(3,5-Difluorobenzyl)-1H-indazol-3-yl)-4-(4-(2-((3-((2-(2,6-dioxopiperidin-3-yl)-1,3-dioxoisoindolin-4-yl)amino)propyl)amino)-2-oxoethyl)piperazin-1-yl)-2-((tetrahydro-2H-pyran-4-yl)amino)benzamide] yielded an IC50 of 3.1 nM. Compound `O=C(CN1CCN(c2ccc(C(=O)Nc3n[nH]c4ccc(Cc5cc(F)cc(F)c5)cc34)c(NC3CCOCC3)c2)CC1)NCCOCCOCCNc1cccc2c1C(=O)N(C1CCC(=O)NC1=O)C2=O` (stereo not shown) [TR-153, N-(5-(3,5-Difluorobenzyl)-1H-indazol-3-yl)-4-(4-(2-((2-(2-(2-((2-(2,6-dioxopiperidin-3-yl)-1,3-dioxoisoindolin-4-yl)amino)ethoxy)ethoxy)ethyl)amino)-2-oxoethyl)piperazin-1-yl)-2-((tetrahydro-2H-pyran-4-yl)amino)benzamide] has an IC50 of 6.3 nM. For `O=C(CN1CCN(c2ccc(C(=O)Nc3n[nH]c4ccc(Cc5cc(F)cc(F)c5)cc34)c(NC3CCOCC3)c2)CC1)NCCCCCCCNc1cccc2c1C(=O)N(C1CCC(=O)NC1=O)C2=O` (stereo not shown) [TR-154, N-(5-(3,5-Difluorobenzyl)-1H-indazol-3-yl)-4-(4-(2-((7-((2-(2,6-dioxopiperidin-3-yl)-1,3-dioxoisoindolin-4-yl)amino)heptyl)amino)-2-oxoethyl)piperazin-1-yl)-2-((tetrahydro-2H-pyran-4-yl)amino)benzamide], the IC50 was 20.8 nM. `O=C(CN1CCN(c2ccc(C(=O)Nc3n[nH]c4ccc(Cc5cc(F)cc(F)c5)cc34)c(NC3CCOCC3)c2)CC1)NCCCCNc1cccc2c1C(=O)N(C1CCC(=O)NC1=O)C2=O` (stereo not shown) [TR-155, N-(5-(3,5-Difluorobenzyl)-1H-indazol-3-yl)-4-(4-(2-((4-((2-(2,6-dioxopiperidin-3-yl)-1,3-dioxoisoindolin-4-yl)amino)butyl)amino)-2-oxoethyl)piperazin-1-yl)-2-((tetrahydro-2H-pyran-4-yl)amino)benzamide] showed an IC50 of 2.9 nM. In the case of `O=C(CN1CCN(c2ccc(C(=O)Nc3n[nH]c4ccc(Cc5cc(F)cc(F)c5)cc34)c(NC3CCOCC3)c2)CC1)NCCCCNc1ccc2c(c1)C(=O)N(C1CCC(=O)NC1=O)C2=O` (stereo not shown) [TR-156, N-(5-(3,5-Difluorobenzyl)-1H-indazol-3-yl)-4-(4-(2-((4-((2-(2,6-dioxopiperidin-3-yl)-1,3-dioxoisoindolin-5-yl)amino)butyl)amino)-2-oxoethyl)piperazin-1-yl)-2-((tetrahydro-2H-pyran-4-yl)amino)benzamide], the IC50 is reported as 3.3 nM. `O=C(CN1CCN(c2ccc(C(=O)Nc3n[nH]c4ccc(Cc5cc(F)cc(F)c5)cc34)c(NC3CCOCC3)c2)CC1)NCCCCCCCNc1ccc2c(c1)C(=O)N(C1CCC(=O)NC1=O)C2=O` (stereo not shown) [TR-157, N-(5-(3,5-Difluorobenzyl)-1H-indazol-3-yl)-4-(4-(2-((7-((2-(2,6-dioxopiperidin-3-yl)-1,3-dioxoisoindolin-5-yl)amino)heptyl)amino)-2-oxoethyl)piperazin-1-yl)-2-((tetrahydro-2H-pyran-4-yl)amino)benzamide] was tested, and the IC50 was 8.3 nM. For `O=C(CN1CCN(c2ccc(C(=O)Nc3n[nH]c4ccc(Cc5cc(F)cc(F)c5)cc34)c(NC3CCOCC3)c2)CC1)NCCCCCCCCNc1ccc2c(c1)C(=O)N(C1CCC(=O)NC1=O)C2=O` (stereo not shown) [TR-159, N-(5-(3,5-Difluorobenzyl)-1H-indazol-3-yl)-4-(4-(2-((8-((2-(2,6-dioxopiperidin-3-yl)-1,3-dioxoisoindolin-5-yl)amino)octyl)amino)-2-oxoethyl)piperazin-1-yl)-2-((tetrahydro-2H-pyran-4-yl)amino)benzamide], the IC50 was 30.4 nM. With `O=C(CN1CCN(c2ccc(C(=O)Nc3n[nH]c4ccc(Cc5cc(F)cc(F)c5)cc34)c(NC3CCOCC3)c2)CC1)NCCOCCOCCOCCOCCNc1ccc2c(c1)C(=O)N(C1CCC(=O)NC1=O)C2=O` (stereo not shown) [TR-160, N-(5-(3,5-Difluorobenzyl)-1H-indazol-3-yl)-4-(4-(17-((2-(2,6-dioxopiperidin-3-yl)-1,3-dioxoisoindolin-5-yl)amino)-2-oxo-6,9,12,15-tetraoxa-3-azaheptadecyl)piperazin-1-yl)-2-((tetrahydro-2H-pyran-4-yl)amino)benzamide] the IC50 was 4.8 nM. For `O=C(CN1CCN(c2ccc(C(=O)Nc3n[nH]c4ccc(Cc5cc(F)cc(F)c5)cc34)c(NC3CCOCC3)c2)CC1)NCCOCCNc1ccc2c(c1)C(=O)N(C1CCC(=O)NC1=O)C2=O` (stereo not shown) [TR-161, N-(5-(3,5-Difluorobenzyl)-1H-indazol-3-yl)-4-(4-(2-((2-(2-((2-(2,6-dioxopiperidin-3-yl)-1,3-dioxoisoindolin-5-yl)amino)ethoxy)ethyl)amino)-2-oxoethyl)piperazin-1-yl)-2-((tetrahydro-2H-pyran-4-yl)amino)benzamide], the IC50 was 4.7 nM. `O=C(CN1CCN(c2ccc(C(=O)Nc3n[nH]c4ccc(Cc5cc(F)cc(F)c5)cc34)c(NC3CCOCC3)c2)CC1)NCCOCCOCCNc1ccc2c(c1)C(=O)N(C1CCC(=O)NC1=O)C2=O` (stereo not shown) [TR-162, N-(5-(3,5-Difluorobenzyl)-1H-indazol-3-yl)-4-(4-(2-((2-(2-(2-((2-(2,6-dioxopiperidin-3-yl)-1,3-dioxoisoindolin-5-yl)amino)ethoxy)ethoxy)ethyl)amino)-2-oxoethyl)piperazin-1-yl)-2-((tetrahydro-2H-pyran-4-yl)amino)benzamide] was tested, and the IC50 was 4.1 nM. Compound `O=C(CN1CCN(c2ccc(C(=O)Nc3n[nH]c4ccc(Cc5cc(F)cc(F)c5)cc34)c(NC3CCOCC3)c2)CC1)NCCOCCOCCOCCNc1ccc2c(c1)C(=O)N(C1CCC(=O)NC1=O)C2=O` (stereo not shown) [TR-163, N-(5-(3,5-Difluorobenzyl)-1H-indazol-3-yl)-4-(4-(14-((2-(2,6-dioxopiperidin-3-yl)-1,3-dioxoisoindolin-5-yl)amino)-2-oxo-6,9,12-trioxa-3-azatetradecyl)piperazin-1-yl)-2-((tetrahydro-2H-pyran-4-yl)amino)benzamide] has an IC50 of 6.3 nM. Work on `O=C(CN1CCN(c2ccc(C(=O)Nc3n[nH]c4ccc(Cc5cc(F)cc(F)c5)cc34)c(NC3CCOCC3)c2)CC1)NCCCCCNc1ccc2c(c1)C(=O)N(C1CCC(=O)NC1=O)C2=O` (stereo not shown) [TR-164, N-(5-(3,5-Difluorobenzyl)-1H-indazol-3-yl)-4-(4-(2-((5-((2-(2,6-dioxopiperidin-3-yl)-1,3-dioxoisoindolin-5-yl)amino)pentyl)amino)-2-oxoethyl)piperazin-1-yl)-2-((tetrahydro-2H-pyran-4-yl)amino)benzamide] yielded an IC50 of 7.8 nM. For `O=C(CN1CCN(c2ccc(C(=O)Nc3n[nH]c4ccc(Cc5cc(F)cc(F)c5)cc34)c(NC3CCOCC3)c2)CC1)NCCNc1ccc2c(c1)C(=O)N(C1CCC(=O)NC1=O)C2=O` (stereo not shown) [TR-165, N-(5-(3,5-Difluorobenzyl)-1H-indazol-3-yl)-4-(4-(2-((2-((2-(2,6-dioxopiperidin-3-yl)-1,3-dioxoisoindolin-5-yl)amino)ethyl)amino)-2-oxoethyl)piperazin-1-yl)-2-((tetrahydro-2H-pyran-4-yl)amino)benzamide], the IC50 was 3.5 nM.
